Measurements from PMC8727943, “Identification and characterization of a novel glutaminase inhibitor” (FEBS Open Bio, 2021).
“And” between values parts separate entries of the source, which are not always exact repeats. Identical values can stand only once. “Also recorded” adds a separate entry of the source. Like-named read-outs stand apart in the source and are kept apart here.

Key:
human CD4+ T cells = test: CFSE-based anti-CD3/CD28-induced CD4+ T-cell proliferation assay; conditions: for percentage of proliferating cells (CFSE dilution), mean: compound 25 µM, anti-CD3/CD28 beads 1:1, 96 h, stimulated control 71.70% ± 1.60
Experimental: Human CD4+ T cells were isolated from buffy coats of healthy donors (obtained from Blodbanken, Oslo, Norway) using the Dynabeads CD4 Positive Isolation Kit (Life Technologies AS, Norway) according to the manufacturer's protocol. […] After 4 days of incubation, beads were removed; cells were washed with 1x PBS, and T‐cell proliferation was assessed by measuring the CFSE dilution using flow cytometry.

GLS1 = conditions: cited from earlier work; for potency of GLS1 inhibition in vitro: varying with cell types; for fold increased inhibitory efficiency compared with DON and BPTES: GLS inhibitors
[1] = test system: anti-CD3/CD28-induced CD4+ T cells; conditions: cited from earlier work
[2] = biological target: T1, recombinant human glutaminase Δ129GAC (Homo sapiens, UniProt O94925); test: Coupled GLS/GDH enzyme assay (HTS and dose response), NADH readout; type: biochemical; conditions: for IC50: 10-point dose response, twofold serial dilution 0.39–200 µM, nonlinear curve fitting, read-out: IC50 for Δ129GAC inhibition; for inhibition at 10 µM: HTS, compound 10 µM, read-out: inhibition of Δ129GAC, positive hits of HTS counter screen; for inhibition of His-Δ129GAC reached in the dose response: dose response 0.39–200 µM
T1 construct: to generate peptides from amino acids 17‐598 and 73‐598 and 130‐598, respectively; made in house; host or cells: Escherichia coli BL21DE3 Rosetta (pRARE)
T1 sequence (O94925 130-598 isoform O94925-3): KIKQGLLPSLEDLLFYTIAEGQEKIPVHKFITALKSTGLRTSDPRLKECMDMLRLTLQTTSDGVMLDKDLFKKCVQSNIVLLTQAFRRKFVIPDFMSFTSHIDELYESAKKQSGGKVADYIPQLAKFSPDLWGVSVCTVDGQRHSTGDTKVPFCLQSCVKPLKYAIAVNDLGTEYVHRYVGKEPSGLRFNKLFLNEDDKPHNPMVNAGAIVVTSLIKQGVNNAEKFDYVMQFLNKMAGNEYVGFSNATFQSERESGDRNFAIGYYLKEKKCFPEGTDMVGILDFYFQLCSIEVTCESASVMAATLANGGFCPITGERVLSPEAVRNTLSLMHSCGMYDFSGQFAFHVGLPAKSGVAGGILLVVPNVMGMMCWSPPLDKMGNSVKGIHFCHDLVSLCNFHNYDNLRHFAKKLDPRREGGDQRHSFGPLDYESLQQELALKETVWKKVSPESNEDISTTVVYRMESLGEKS
Experimental: The assay used to determine GLS activity for HTS and enzyme kinetics measurements was adapted from Cassago et al.. In brief, this assay determines the activity of GLS by measuring the amount of NADH produced by glutamate dehydrogenase (GDH) when converting glutamate to α‐ketoglutarate. […] For HTS, the enzyme assay was run using the following conditions: 6 nM Δ129GAC, 50 mM Tris‐acetate, pH 8.6, 3 units of bovine serum GDH (Sigma‐Aldrich), 2 mM NAD^+ (Roche, Basel, Switzerland), 4 mM glutamine, 50 mM K2PO4 (MERCK, Kenilworth, NJ, USA) and 0.005% Tween‐20 (Sigma‐Aldrich). […] 10 nL of each compound was applied to the wells using an ECHO 550 liquid handler (Labcyte, Sunnyvale, CA, USA) followed by dispensing and mixing of 5 µL enzyme assay mix (Hamilton Microlab Star, Reno, NV, USA). This mix was incubated at room temperature for 1 h. Columns 23 and 24 on the plate contained wells for positive and negative controls to determine Z‐factor values. Z‐factor value was calculated based on formula 1: Formula1:[…] σp is the SD of the positive control, σn is the SD of the negative control, µp is the mean of the positive control and µn is the mean of the negative control. Following 1‐h incubation, 5 µL of glutamine (final concentration 4 mM) was added.
To become enzymatically active, the first 16 and 72 amino acids at the N‐terminal must be sequentially deleted in the mitochondria from endogenous GLSGAC [6]. We cloned and expressed three variants of GAC, Δ16GAC, Δ72GAC and Δ129GAC (Fig. 1A,B). […] Next, Δ129GAC PCR product was cloned into pET‐24(b) which contained DNA encoding sequence for a His‐tag. […] Using His‐Δ129GAC, a HTS GAC enzyme activity assay was modified according to Cassago et al.. Briefly, the assay is a two‐step enzymatic assay where glutamine converted to glutamate by His‐Δ129GAC and further to α‐ketoglutarate and NADH by GDH (Fig. 1D). The glutamine consumption activity of His‐Δ129GAC was determined by assuming a stoichiometric ratio of one glutamine consumed to every molecule of NADH produced.

[3] = biological target: T1, recombinant human glutaminase Δ129GAC; test: Steady-state kinetic analysis of Δ129GAC in the presence of C19; type: biochemical
Experimental: […] of NADH in the HTS was measured at 340 nm after 5 min, and quantification was done by using the extinction coefficient for NADH of 6220 M^−1·cm^−1 and 7.7 mm of path length. The total reaction volume was 80 µL, and the measurements were performed on a FluoStar Optima (BMB Labtech, Ortenberg, Germany) microplate reader. The experiments were done in 5 replicates at 12 different substrate concentrations ranging from 0.39 to 50 mM. The kinetics were determined at compound concentrations of 16, 25 and 30 µM.

His-Δ129GAC = biological target: T2, His-Δ129GAC (Homo sapiens, UniProt O94925); test: Microscale thermophoresis (MST), labelled and nonlabelled; type: binding; conditions: 25 °C
T2 construct: to generate peptides from amino acids 17‐598 and 73‐598 and 130‐598, respectively; made in house; host or cells: Escherichia coli BL21DE3 Rosetta (pRARE)
T2 sequence (O94925 130-598 isoform O94925-3): T1 sequence (O94925 130-598 isoform O94925-3)
Experimental: For the nonlabelled microscale thermophoresis (MST) assay, a 16‐point titration series of compound was done in a protein concentration of 100 nM Δ129GAC. […] Samples were loaded into Zero Background MST Premium Coated Capillaries, and measurements were done with a Monolith NT Label‐Free instrument (NanoTemper) at 25 °C using 20% MST power and 20% excitation power. […] For labelled analyses, MST Premium Coated Capillaries were used. The experiments were performed in duplicates and data presented as mean values ± standard deviation (SD). Data were normalized and nonlinear curve fitted using […] PRISM version 6 (La Jolla, CA, USA).

[4] = test system: cytokine production of anti-CD3/CD28-stimulated CD4+ T cells; test: Luminex screening assay of cytokines in T-cell culture supernatants; type: cell-based, human; conditions: compound 25 µM, day 3, normalized to stimulated control
Experimental: Supernatants from T‐cell cultures were harvested after 3 days of stimulation and stored at −20 °C. Samples were diluted twofold, and the human magnetic luminex screening assay (R&D Systems, Minneapolis, MN, USA) for TNF‐α, IL‐6, IL‐10, INF‐g, IL‐4, IL‐17α, IL‐2 was performed according to manufacturer’s instructions. Data were analysed with Milliplex Analyst (Merck Millipore) and standard curves set according to manufacturer's recommendations.

[5] = biological target: T3, glutamate dehydrogenase (GDH) (Bos taurus, UniProt P00366); test: GDH counter assay (secondary enzyme of the coupled assay); type: biochemical, bovine
T3 construct: purchased Sigma‐Aldrich
T3 sequence (P00366 58-558): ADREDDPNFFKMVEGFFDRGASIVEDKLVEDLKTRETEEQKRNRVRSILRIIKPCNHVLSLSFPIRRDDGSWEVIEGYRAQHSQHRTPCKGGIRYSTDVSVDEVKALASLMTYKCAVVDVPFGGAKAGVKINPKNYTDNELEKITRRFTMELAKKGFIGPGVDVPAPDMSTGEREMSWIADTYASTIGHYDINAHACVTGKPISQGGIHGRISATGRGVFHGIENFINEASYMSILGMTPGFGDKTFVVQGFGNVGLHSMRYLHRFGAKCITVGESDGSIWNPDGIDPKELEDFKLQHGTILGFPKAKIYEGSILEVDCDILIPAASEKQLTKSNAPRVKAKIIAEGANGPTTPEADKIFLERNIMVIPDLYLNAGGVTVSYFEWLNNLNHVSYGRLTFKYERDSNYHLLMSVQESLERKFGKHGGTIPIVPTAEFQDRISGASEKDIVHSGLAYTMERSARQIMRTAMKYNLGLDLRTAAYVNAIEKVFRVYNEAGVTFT

MDA-468 TNBC cells = test: Thymidine incorporation proliferation assay, MDA-468; type: cell-based; conditions: 72 h, read-out: IC50 proliferation MDA-468, thymidine incorporation after 72 h
MDA-231 TNBC cells = test: Thymidine incorporation proliferation assay, MDA-231; type: cell-based; conditions: Homo sapiens, MDA-MB-231, 72 h, read-out: IC50 proliferation MDA-231
cells = test system: cells; set-up: method as in PMID 909432, PMID 4587126; conditions: cited from earlier work
[6] = set-up: method as in PMID 30148361; conditions: cited from earlier work
[7] = set-up: method as in PMID 30148361; conditions: cited from earlier work; remark: listed apart in the source

O=C(Cc1ccccc1)Nc1nnc(CCSCCc2nnc(NC(=O)Cc3ccccc3)s2)s1 [BPTES, bis‐2‐(5‐phenylacetamido‐1,3,4‐thiadiazol‐2yl)ethyl sulfide]
percentage of proliferating cells (CFSE dilution), mean (human CD4+ T cells): 15.03%
inhibition of cytokine production, active range [1]: high micromolar range

Sc1nc(-c2ccccc2)cn1N=Cc1ccncc1 [C2]
IC50 [2]: 2.3 µM
inhibition at 10 µM [2]: ≥ 50%
inhibition of His-Δ129GAC reached in the dose response [2]: did not inhibit Δ129GAC activity by 100%; also recorded: incapable of completely inhibiting
inhibition of CD3/CD28-induced CD4+ T-cell proliferation (human CD4+ T cells): not

Cc1ccc(-c2nnc3n2CCCCC3)cc1NC(=O)Cc1sc(S)nc1C [C15]
IC50 [2]: 5.7 µM
inhibition at 10 µM [2]: ≥ 50%
inhibition of His-Δ129GAC reached in the dose response [2]: incapable of completely inhibiting
inhibition of His-Δ129GAC reached in the dose response ([2]; listed as 15): did not inhibit Δ129GAC activity by 100%
inhibition of CD3/CD28-induced CD4+ T-cell proliferation (human CD4+ T cells): not

O=C(NCCNc1nc2ccccc2s1)c1cccnc1S [C19]
IC50 [2]: 6.8 µM
inhibition at 10 µM [2]: ≥ 50%
mode of inhibition with respect to the substrate ([3]; C19 0, 16, 25, 30 µM): noncompetitive inhibitor; also recorded: noncompetitive inhibition
effect on Km of His-Δ129GAC ([3]; C19 0–30 µM): not significantly affected
K cat ([3]; [I] 16 µM C19): 23.03 ± 0.6245 s⁻¹
V max ([3]; [I] 16 µM C19, 6 nM Δ129GAC): 44.22 ± 1.1990 pmol/s
K cat ([3]; [I] 25 µM C19): 16.46 ± 0.6640 s⁻¹
V max ([3]; [I] 25 µM C19, 6 nM Δ129GAC): 31.59 ± 1.2750 pmol/s
K cat ([3]; [I] 30 µM C19): 12.31 ± 0.2425 s⁻¹
V max ([3]; [I] 30 µM C19, 6 nM Δ129GAC): 23.63 ± 0.47 pmol/s and 23.63 ± 0.4655 pmol/s
Kd (His-Δ129GAC; 100 nM nonlabelled Δ129GAC, C19 0–1000 µM, read-out: Kd, nonlabelled MST): 20 ± 4.8 µM
Kd (His-Δ129GAC; NT-647-labelled Δ129GAC 25 nM, read-out: Kd, labelled MST): 14.7 µM
IC50 (human CD4+ T cells; Homo sapiens, CD4+ T cell): 11 µM
percentage of proliferating cells (CFSE dilution), mean (human CD4+ T cells): 9.16%
levels of TNF-α, IL-10, IL-2, IL-6, INF-γ, IL-17A and IL-4 in supernatants [4]: significant decrease; also recorded: significantly better than BPTES

O=C(Cc1cccc(OC(F)(F)F)c1)Nc1ccc(CCCCc2nnc(NC(=O)Cc3ccccn3)s2)nn1 [CB839, Telaglenastat]
effect on GDH activity ([5]; 30 nM CB839, measured after 20 min, glutamate as substrate): no effect on GDH activity; also recorded: no inhibition effect
effect on GDH activity ([5]; 10 µM CB839 for 2 h): did not influence GDH activity
IC50 (MDA-468 TNBC cells): 0.0112 µM
IC50 (MDA-231 TNBC cells): 0.00019 µM

[N-]=[N+]=CC(=O)CC[C@H](N)C(=O)O [DON, 6‐diazo‐5‐oxonorleucine]
off-target toxicity to cells (cells): toxic to cells

CN1CCc2cccc3c2[C@H]1Cc1ccc(O)c(O)c1-3 [apomorphine]
fold increased inhibitory efficiency compared with DON and BPTES (GLS1): over 100 fold

COc1ccc2c(c[n+](C)c3c4cc5c(cc4ccc23)OCO5)c1OC [chelerythrine]
fold increased inhibitory efficiency compared with DON and BPTES (GLS1): over 100 fold

CN(C)c1ccc(C2Nc3ccc4ccccc4c3C3=C2C(=O)CC(C)(C)C3)cc1Br (stereo not shown) [compound 968, 5‐(3‐Bromo‐4‐(dimethylamino)phenyl)‐2,2‐dimethyl‐2,3,5,6‐tetrahydrobenzo[a]phenanthridin‐4(1H)‐one]
potency of GLS1 inhibition in vitro (GLS1): 2.5 µM
aqueous solubility [6]: poor
metabolic stability [7]: poor

O=c1c2ccccc2[se]n1-c1ccccc1 [ebselen]
fold increased inhibitory efficiency compared with DON and BPTES (GLS1): over 100 fold
